Data on five compounds can be found in patent US20180230127A1 (PFIZER INC., priority 2015, published 2018).

Molecules are shown by their SMILES.

As usually defined, the IC50 is the concentration needed to halve the response being measured.

The target in this assay is T1, human IRAK4 kinase domain (aa 154-460) (Homo sapiens, UniProt Q9NWZ3).
T1 construct: human IRAK4 kinase domain (aa 154-460; GenBank ID AF445802)
T1 sequence (Q9NWZ3 154-460): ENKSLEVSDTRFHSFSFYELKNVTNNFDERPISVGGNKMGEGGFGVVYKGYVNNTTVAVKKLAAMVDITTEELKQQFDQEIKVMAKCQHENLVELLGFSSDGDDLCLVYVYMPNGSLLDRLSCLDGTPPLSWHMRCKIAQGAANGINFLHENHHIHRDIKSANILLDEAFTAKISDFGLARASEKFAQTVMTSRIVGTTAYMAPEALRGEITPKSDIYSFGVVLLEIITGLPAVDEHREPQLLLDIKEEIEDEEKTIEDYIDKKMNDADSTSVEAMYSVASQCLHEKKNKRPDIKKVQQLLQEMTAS
Kind of assay: IRAK4 Enzymatic DELFIA Assay. The assay is classed as biochemical. Conditions: 0.6 mM ATP (KM); 114 pM IRAK4 kinase domain; 200 nM substrate; 5% DMSO.
`CC(C)Oc1cc2c(O[C@H]3CCNC3)nccc2cc1C(N)=O` [Example 79, 7-(propan-2-yloxy)-1-[(3S)-pyrrolidin-3-yloxy]isoquinoline-6-carboxamide]: the half-inhibitory concentration (IC50) is 1470 nM.
Compound `CC(C)Oc1cc2c(O[C@@H]3CCCN(C(=O)CCC#N)C3)ccnc2cc1C(N)=O` [Example 35] returned an IC50 of 266 nM.
To `CC(C)Oc1cc2c(O[C@@H]3CCCN(C(=O)CC#N)C3)ccnc2cc1C(N)=O` [Example 28, 4-{[(3R)-1-(cyanoacetyl)piperidin-3-yl]oxy}-6-(propan-2-yloxy)quinoline-7-carboxamide] belongs 4 nM.
To `CC(C)Oc1cc2c(OC3CCNCC3)nccc2cc1C(N)=O` [Example 60, 1-(piperidin-4-yloxy)-7-(propan-2-yloxy)isoquinoline-6-carboxamide] belongs 92 nM; to `CC(C)Oc1cc2c(OC3CCNC3=O)nccc2cc1C(N)=O` (centres unmarked) [Example 21, 1-[(2-oxopyrrolidin-3-yl)oxy]-7-(propan-2-yloxy)isoquinoline-6-carboxamide], 602 nM.
